In US20090181975A1, “NEBIVOLOL IN THE TREATMENT OF SEXUAL DYSFUNCTION” (FOREST LABORATORIES HOLDINGS LIMITED, priority 2008, published 2009):

Tests used:
[1] = tested on: nitrite plus nitrate (NOx) in rat serum; experiment: Serum NOx in STZ-diabetic rats; format: in vivo, rat (Sprague-Dawley); conditions: for effect on NOx content in sera from diabetic rats: 3 and 10 mg/kg/day s.c. for 10 days
Description: Male Sprague-Dawley rats were used as a model for this study. Diabetes was induced by a single injection of streptozotocin (STZ, 60 mg/kg; i.p.) dissolved in 0.1 M citric acid/trisodic citrate buffer (pH 4-4.5) and was assessed by glycemia determination 72 h after induction. Animals were kept, with free access to food and water, for 8 weeks before experimental assays. Eight weeks after induction of diabetes, rats show altered in vivo vascular function (Angulo et al., Naunyn-Schmiedeberg's Arch Pharmacol, 358(5), 529-37, 1998) and reduced erectile responses (Angulo et al., J. Sex Med., 2, 341-346, 2005). Blood glucose concentration was determined each week and just before the experiment. Insulin levels were not determined. Total NO derivatives (nitrites plus nitrates) were measured in pre-filtered (10,000 MW pore size) serum samples from the studied rats by the Griess colorimetric method, using a commercial kit for nitrite and nitrate determination from Cayman Chemical Co. (Ann Arbor, Mich.). See […] et al., Methods Enzymol., 268, 142-151, 1996. […] After 10 days treatment, diabetic rats were anesthetized and erectile responses to cavernosal nerve electrical stimulation (CNES) were determined. After an equilibration period, the PDE-5 inhibitor sildenafil (0.3 mg/kg) or the vehicle (25% glycofurol) was intravenously administered. Forty five minutes later, erectile responses to CNES were again evaluated, and 5 min after CNES application, blood was collected for obtaining plasma and serum, and the penis was excised. Serum samples were immediately frozen until determinations of NOx and TBARS. Plasma and penile tissues were immediately frozen until determinations of cGMP.

[2] = tested on: nitrite plus nitrate (NOx) in rat serum; experiment: Serum nitrite plus nitrate (NOx) by Griess colorimetric method; format: in vivo; conditions: for effect on serum NOx concentration: i.v.: nebivolol 3 mg/kg, atenolol 3 mg/kg, vs vehicle
Description: Total NO derivatives (nitrites plus nitrates) were measured in pre-filtered (10,000 MW pore size) serum samples from the studied rats by the Griess colorimetric method, using a commercial kit for nitrite and nitrate determination from Cayman Chemical Co. (Ann Arbor, Mich.). Serum concentrations of NOx were determined 10 minutes after nebivolol administration.

[3] = tested on: cGMP in penile tissue; experiment: Penile tissue cGMP in STZ-diabetic rats; format: in vivo, rat (Sprague-Dawley); conditions: for cGMP content in penile tissue from diabetic rats after administration of sildenafil: then sildenafil 0.3 mg/kg i.v.
Description: Male Sprague-Dawley rats were used as a model for this study. Diabetes was induced by a single injection of streptozotocin (STZ, 60 mg/kg; i.p.) dissolved in 0.1 M citric acid/trisodic citrate buffer (pH 4-4.5) and was assessed by glycemia determination 72 h after induction. Animals were kept, with free access to food and water, for 8 weeks before experimental assays. Eight weeks after induction of diabetes, rats show altered in vivo vascular function (Angulo et al., Naunyn-Schmiedeberg's Arch Pharmacol, 358(5), 529-37, 1998) and reduced erectile responses (Angulo et al., J. Sex Med., 2, 341-346, 2005). Blood glucose concentration was determined each week and just before the experiment. Insulin levels were not determined. Plasma samples were collected, immediately frozen and stored at −80° C. until extraction for cyclic nucleotide assay. Samples were then precipitated in ethanol, centrifuged and the supernatant was dried under a nitrogen stream. Penile tissues were rapidly immersed in liquid nitrogen and were stored at −80° C. until extraction for cyclic nucleotide assay. […] After 10 days treatment, diabetic rats were anesthetized and erectile responses to cavernosal nerve electrical stimulation (CNES) were determined. After an equilibration period, the PDE-5 inhibitor sildenafil (0.3 mg/kg) or the vehicle (25% glycofurol) was intravenously administered. Forty five minutes later, erectile responses to CNES were again evaluated, and 5 min after CNES application, blood was collected for obtaining plasma and serum, and the penis was excised. Serum samples were immediately frozen until determinations of NOx and TBARS. Plasma and penile tissues were immediately frozen until determinations of cGMP.

[4] = tested on: human corpus cavernosum (HCC) strips; experiment: Relaxation of human corpus cavernosum strips contracted with U46619; format: cell-based; conditions: for relaxation of HCC strips by cumulative addition: U46619 1-3 nM, nebivolol 1 nM to 0.1 mM; for relaxation of HCC strips by cumulative addition / effect on sildenafil-induced relaxation of HCC strips: sildenafil 1 nm to 10 μM; for effect on acetylcholine-induced endothelium-dependent relaxation of HCC strips: metoprolol 1 μM, nebivolol 0.3 μM; for effect on acetylcholine-induced endothelium-dependent relaxation of HCC strips / effect on sildenafil-induced relaxation of HCC strips: atenolol 1 μM; for effect on sildenafil-induced relaxation of HCC strips: nebivolol at 1 and 10 μM
Description: Specimens of human corpus cavernosum were obtained from organ donors and from impotent men at the time of penile prosthesis implantation. Tissues were placed in ice-cold M-400 solution (pH 7.4; 400 mOsm/kg, composition in w/v: 4.19% manitol, 0.2% KH2PO4, 0.97% K2HPO4.3H2O, 0.11% KCl and 0.08% NaHCO3) at the time of removal and transported to the laboratory for utilization within 16 h. Strips of human corpus cavemosum were mounted on force transducers in 8 ml organ baths (37° C.) containing physiological salt solution (PSS) continuously bubbled with 95% O2/5% CO2 mixture to maintain a pH of 7.4. Strips were contracted with the thromboxane receptor agonist U46619 (1-3 nM) and relaxation responses were evaluated by cumulative additions of compounds to the chambers.

[5] = tested on: diabetic rats; experiment: Erectile responses to cavernosal nerve electrical stimulation (CNES) in STZ-diabetic rats; format: in vivo, rat (Sprague-Dawley); conditions: for erectile responses after sildenafil compared with non diabetic rats treated with sildenafil: 10 days treatment, then sildenafil 0.3 mg/kg i.v.
Description: Male Sprague-Dawley rats were used as a model for this study. Diabetes was induced by a single injection of streptozotocin (STZ, 60 mg/kg; i.p.) dissolved in 0.1 M citric acid/trisodic citrate buffer (pH 4-4.5) and was assessed by glycemia determination 72 h after induction. Animals were kept, with free access to food and water, for 8 weeks before experimental assays. Eight weeks after induction of diabetes, rats show reduced erectile responses (Angulo et al., Naunyn-Schmiedeberg's Arch Pharmacol, 358(5), 529-37, 1998; Angulo et al., J. Sex Med., 2, 341-346, 2005). Blood glucose concentration was determined each week and just before the experiment. Insulin levels were not determined. Rats were anesthetized with ketolar and diazepam. The surgical procedure consisted of dissection and isolation of the right cavernous nerve through an abdominal midline incision and exposure of penile crura through a transverse perineal incision. Intracavernosal pressure (ICP) measurements were permitted by insertion of a 23-gauge needle into the right crus. The right carotid artery and left external jugular vein were catheterized for constant blood pressure measurement and saline infusion, respectively. Electrostimulation was performed with a delicate platinum bipolar hook electrode connected to a stimulator and current amplifier. The parameters of electrical stimulation consisted of pulses with a duration of 0.3 ms and 1.5 mA of current intensity for 1 min. Frequency-response curves were performed by applying stimulation at 1, 3 and 10 Hz with a lapse of 3 min between each increase of frequency (Angulo et al., J. Sex Med., 2, 341-346, 2005). […] After this period of treatment, the diabetic rats were anesthetized and ICP responses to electrical stimulation were evaluated. After an equilibration period, the PDE5 inhibitor sildenafil (0.3 mg/kg) or the vehicle (25% glycofurol) was intravenously administered. Forty five minutes later, ICP responses were again determined

[6] = 3 mg/kg/day s.c. for 10 days, sildenafil 0.3 mg/kg i.v.
[7] = 10 mg/kg/day s.c. for 10 days, sildenafil 0.3 mg/kg i.v., atenolol: measured as AUC of ICP

Compound	effect on NOx content in sera from diabetic rats [1]	effect on serum NOx concentration ([2]; sildenafil 0.3 mg/kg)	cGMP content in penile tissue from diabetic rats after administration of sildenafil ([3]; 3 and 10 mg/kg/day for 10 days)	relaxation of HCC strips by cumulative addition [4]	effect on acetylcholine-induced endothelium-dependent relaxation of HCC strips [4]	effect on sildenafil-induced relaxation of HCC strips [4]	potentiation by sildenafil of erectile responses after 10 days treatment [5, 6]	potentiation by sildenafil of erectile responses after 10 days treatment [5, 7]	erectile responses after sildenafil compared with non diabetic rats treated with sildenafil [5]	also measured
OC(CNCC(O)C1CCc2cc(F)ccc2O1)C1CCc2cc(F)ccc2O1 (racemic) [nebivolol, α,α′-iminobis(methylene)bis[6-fluoro-2-chromanmethanol]]	significantly increased	significantly higher than after vehicle	significantly higher than those obtained in diabetic rats treated with vehicle	modest relaxant effect	not significantly modified	significantly potentiated	No significant potentiation	No significant potentiation	not significant differences	NOx effect, comparison of doses ([1]; 3 vs 10 mg/kg/day): more marked with the 3 mg/kg/day dose; increase of the concentration of NOx in serum compared to the vehicle ([2]; 3 mg/kg i.v.): three-fold increase; concentration of NOx in serum ([2]; 3 mg/kg i.v., 10 minutes after administration, vehicle 4.9±0.4, p<0.05): 15.4 ± 2.8 µM; effect on cGMP content in penile tissue from diabetic rats ([3]; 3 and 10 mg/kg/day for 10 days): statistically significant increase; effect on acetylcholine-induced (endothelium-dependent) relaxation of HCC ([4]; pre-treatment with nebivolol 10 μM): potentiated; erectile effect of 3 mg/kg/day dose compared with 10 mg/kg/day dose ([5]; 3 mg/kg/day for 10 days): equally as effective as the 10 mg/kg/day dose; effect on erectile responses in diabetic rats in the absence of the PDE5 inhibitor ([5]; 3 and 10 mg/kg/day for 10 days): significantly enhanced; erectile responses in treated diabetic rats compared with non diabetic rats ([5]; 3 and 10 mg/kg/day for 10 days, no PDE5 inhibitor): not significantly different from those achieved by non diabetic rats
CC(C)NCC(O)COc1ccc(CC(N)=O)cc1 (stereo not drawn) [atenolol]	did not affect	did not significantly alter	did not modify		not significantly modified	not affected	did not reach statistical significance	reached statistical significance	significantly reduced erectile responses	effect of the higher dose on erectile function in diabetic rats ([5]; 10 mg/kg/day for 10 days): did not positively affect
CCCc1nn(C)c2c(=O)[nH]c(-c3cc(S(=O)(=O)N4CCN(C)CC4)ccc3OCC)nc12 [sildenafil]		did not alter NOx levels		concentration dependent relaxations						effect on serum NOx content in rats ([1]; sildenafil 0.3 mg/kg i.v.): did not modify; influence on the effects of nebivolol and atenolol on NOx content in sera from diabetic rats ([1]; sildenafil 0.3 mg/kg i.v.): not influenced; effect on nebivolol-induced increment in serum NOx ([2]; nebivolol 3 mg/kg i.v., L-NAME 3 mg/kg, ODQ 1 mg/kg, propranolol 1 mg/kg, sildenafil 0.3 mg/kg): did not alter NOx levels or affect nebivolol-induced effects; effect on cGMP levels in penile tissue from diabetic and non diabetic rats ([3]; sildenafil 0.3 mg/kg i.v.): produced an increase; effect on erectile responses to CNES in diabetic rats ([5]; sildenafil 0.3 mg/kg i.v., vehicle-treated diabetic rats): potentiation of erectile responses
